Patent US11667602B2, “Compounds and their use” (AstraZeneca AB, priority 2020, dated 2023)
pEC50: −log10 of the molar value. Converted amounts (≈) assume the structure as drawn.

Assays:
[1] = Human Plasma Protein Binding (Test B); type: in vitro ADME; details: fraction unbound (fu)
Procedure, shortened: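 Values given as % free (fu) in human plasma, using the method of Wernevik et al. (2020). For compounds tested more than once, the arithmetic mean is given.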

[2] = Human Liver Microsomal Stability (Test C); type: in vitro ADME; details: human, liver microsomes
Procedure, shortened: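 CLint (μl/min/mg protein) derived from compound depletion in human liver microsomes following a published standardized early-DMPK protocol; replicate determinations given as arithmetic mean.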

[3] = Rat Hepatocyte Stability (Test E); type: in vitro ADME; details: rat, hepatocytes, geometric mean if run multiple times
Procedure, shortened: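 Intrinsic clearance in rat hepatocytes, expressed as μl/min/10^6 cells, following the literature integrated DMPK panel method. Repeat determinations combined as geometric mean.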

Solubility (Test F) = type: physicochemical; details: arithmetic mean if run multiple times
Protocol: The assay was conducted according to the Solubility Assay described in pages 164-167 of Wernevik, J. et al., “A Fully Integrated Assay Panel for Early Drug Metabolism and Pharmacokinetics Profiling”, Assay and Drug Development Technologies, 2020, 18(4), 157-179. Data are reported in Table 36 as solubility ([…]. Where the assay was run multiple times for the same compound, the arithmetic mean is reported.

human RXFP1 = target: T1, human RXFP1 (Homo sapiens, UniProt Q9HBX9); assay: RXFP1 Hu cAMP (Test A); type: cell-based; parameters: expressed in transfected cells; host or cells: Jump-In T-REx CHO-K1 cells (ThermoFisher), induced with 10 ng/ml doxycycline for 24 h; details: RXFP1 Hu cAMP; for pEC50: read-out: Test A EC50
T1 sequence (Q9HBX9 1-757): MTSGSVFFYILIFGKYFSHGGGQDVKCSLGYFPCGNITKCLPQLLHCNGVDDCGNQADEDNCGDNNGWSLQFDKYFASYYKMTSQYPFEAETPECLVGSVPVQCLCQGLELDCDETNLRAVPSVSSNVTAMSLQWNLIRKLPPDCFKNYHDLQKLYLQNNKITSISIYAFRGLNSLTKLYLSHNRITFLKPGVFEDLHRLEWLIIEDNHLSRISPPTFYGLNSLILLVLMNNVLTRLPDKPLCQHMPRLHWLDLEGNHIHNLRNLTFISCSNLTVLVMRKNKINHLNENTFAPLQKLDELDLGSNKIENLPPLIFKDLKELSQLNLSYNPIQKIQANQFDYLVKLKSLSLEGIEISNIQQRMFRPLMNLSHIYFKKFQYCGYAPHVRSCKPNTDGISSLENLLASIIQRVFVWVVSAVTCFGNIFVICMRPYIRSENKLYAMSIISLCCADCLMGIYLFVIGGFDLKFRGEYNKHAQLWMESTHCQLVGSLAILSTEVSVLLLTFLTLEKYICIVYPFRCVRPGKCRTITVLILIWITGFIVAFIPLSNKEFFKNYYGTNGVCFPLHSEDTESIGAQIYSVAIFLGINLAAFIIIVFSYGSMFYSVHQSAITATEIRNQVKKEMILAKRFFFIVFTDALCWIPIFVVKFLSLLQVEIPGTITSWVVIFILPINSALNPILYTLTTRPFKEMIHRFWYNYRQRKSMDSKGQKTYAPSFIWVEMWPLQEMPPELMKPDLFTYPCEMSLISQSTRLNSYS
Procedure, shortened: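 Read-out is HTRF signal, inversely proportional to cAMP, converted to cAMP amount by standard curve. Stimulation occurred in inducible CHO-K1 cells expressing the human receptor with phosphodiesterases blocked by 0.5 mM IBMX.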

| SMILES | Test B Human Plasma Protein Binding (% free) [1] [% free] | microsomal CLint [2] [µL/min/mg] | hepatocyte CLint [3] [µL/min/1e6 cells] | solubility (Solubility (Test F)) [µM] | Test A Sinf (human RXFP1) [%] | pEC50 (human RXFP1) |
| --- | --- | --- | --- | --- | --- | --- |
| COc1cc(F)c(O[C@H]2CC[C@@H](C(=O)O)CC2)cc1C(=O)N[C@@H]1[C@H]2CC[C@H](C2)[C@@H]1C(=O)Nc1ccnc(C(F)(F)F)c1 [Example 12, (1S,4s)-4-(2-Fluoro-4-methoxy-5-(((1S,2R,3S,4R)-3-((2-(trifluoromethyl)pyridin-4-yl)carbamoyl)bicyclo[2.2.1]heptan-2-yl)carbamoyl)phenoxy)cyclohexane-1-carboxylic acid] | 2.7 | 23 | 64 | 850 (≈ 505 µg/mL) | 107 | 6.39 |
| CCCCNC(=O)[C@H]1[C@@H]2CC[C@@H](C2)[C@H]1NC(=O)c1cc(O[C@H]2CC[C@@](C)(C(=O)O)CC2)c(C#N)cc1OC [Example 91] | 5.9 | 20 | 59 | 830 (≈ 436 µg/mL) | 114 | 6.57 |
| COc1cc(F)c(O[C@H]2CC[C@@H](C(=O)O)CC2)cc1C(=O)N[C@@H]1[C@H]2CC[C@H](C2)[C@@H]1C(=O)Nc1cc(F)c(F)c(F)c1 [Example 187] | 0.41 | 15 | 21 | 580 (≈ 336 µg/mL) | 105 | 6.60 |
| COc1cc(F)c(O[C@H]2CC[C@@H](C(=O)O)CC2)cc1C(=O)N[C@@H]1[C@H]2CC[C@H](C2)[C@@H]1C(=O)Nc1ccc(Cl)c(C(F)(F)F)c1 [Example 186] | 0.24 | 27 | 20 | 80 (≈ 50.2 µg/mL) | 110 | 7.74 |
| COc1cc(F)c(O[C@H]2CC[C@@](C)(C(=O)O)CC2)cc1C(=O)Nc1nn2cccnc2c1C(=O)NCC1(C)CCC1 [Example 217, (1s,4s)-4-(2-Fluoro-4-methoxy-5-((3-(((1-methylcyclobutyl)methyl)carbamoyl)pyrazolo[1,5-a]pyrimidin-2-yl)carbamoyl)phenoxy)-1-methylcyclohexane-1-carboxylic acid] | 0.19 | 43 | 17 | < 7.3 |  | < 5.03 |

Second part, the compound after the results:

| Test B Human Plasma Protein Binding (% free) [1] [% free] | microsomal CLint [2] [µL/min/mg] | hepatocyte CLint [3] [µL/min/1e6 cells] | solubility (Solubility (Test F)) [µM] | Test A Sinf (human RXFP1) [%] | pEC50 (human RXFP1) | SMILES |
| --- | --- | --- | --- | --- | --- | --- |
| 33 | 6.3 | 6.4 | 970 (≈ 502 µg/mL) | 93 | < 5.57 | COc1cc(F)c(O[C@H]2CC[C@@](C)(C(=O)O)CC2)cc1C(=O)N[C@@H]1CCC[C@@H]1C(=O)NCC(C)(C)C#N [Example 69] |
| <0.36 | 110 | 13 | 130 (≈ 82.4 µg/mL) | 82 | 6.23 | COc1cc(F)c(-c2ccc(C(N)=O)cc2)cc1C(=O)N[C@@H]1[C@H]2CC[C@H](C2)[C@@H]1C(=O)Nc1cccc(S(=O)(=O)C(F)(F)F)c1 [Example 434, 6-Fluoro-4-methoxy-N3-((1S,2R,3S,4R)-3-((3-((trifluoromethyl)sulfonyl)phenyl)carbamoyl)bicyclo[2.2.1]heptan-2-yl)-[1,1′-biphenyl]-3,4′-dicarboxamide] |
| 1.6 | 28 | 130 | 860 (≈ 508 µg/mL) | 131 | 6.08 | COc1cc(F)c(O[C@H]2CC[C@@H](C(=O)O)CC2)cc1C(=O)N[C@@H]1[C@H]2CC[C@H](C2)[C@@H]1C(=O)Nc1cccc(OC(F)F)c1 [Example 195] |
| 21 | < 3 | 17 | 980 (≈ 512 µg/mL) | 105 | 4.92 | COc1cc(F)c(O[C@H]2CC[C@@](C)(C(=O)O)CC2)cc1C(=O)N[C@@H]1CCC[C@@H]1C(=O)NCC1(CF)CC1 [Example 56, (1S,4s)-4-(2-Fluoro-5-(((1R,2S)-2-(((1-(fluoromethyl)cyclopropyl)methyl)carbamoyl)cyclopentyl)carbamoyl)-4-methoxyphenoxy)-1-methylcyclohexane-1-carboxylic acid] |
